Tested on: pressurized cerebral arteries from β1-knockout (KCNMB1-knockout) mice
Assay: Artery diameter measurement, pressurized cerebral arteries from BK β1-knockout mice
Set-up: species or system mouse
Conditions: 55 nM
Method: Artery Diameter Measurement. Middle cerebral arteries were isolated from adult male Sprague-Dawley rats (=250 g) or 8- to 12-week-old β1-knockout and C57BL/6 control mice. Rats and mice were decapitated using a guillotine and sharp scissors, respectively. These procedures were approved by the Institutional Animal Care and Use Committee from The University of Tennessee Health Science Center, an AMLAC-accredited institution. Pressurization of arteries was performed as described (Liu et al., 2004). Endothelium was removed by passing an air bubble into the vessel lumen for 90 sec. Diameter changes were monitored through an inverted microscope (Nikon Eclipse TS100, Nikon Corp., Tokyo, Japan), recorded on camera (Sanyo VCB-3512T, Sanyo Electric Corp., Japan), and transferred to a computer. Diameter data were acquired and analyzed using IonWizard 4.4 software (IonOptics Corp., Milton, Mass., United States of America). […]
Data Analysis. […] Arterial diameter and electrophysiological data were analyzed with IonWizard 4.4 (IonOptics Corp., Milton, Mass., United States of America) and pCLAMP 8.0 (Molecular Devices, Union City, Calif., United States of America). […]
To determine the impact of LC targeting of BK β1-subunits on organ function, LC action on the arterial diameter of pressurized cerebral arteries was evaluated from β1-knockout vs. wt C57BU6 mice (controls). […]

## iberiotoxin (QFTDVDCSVSKECWSVCKDLFGVDRGKCMGKKCRCYQ; UniProt P24663 1-37, looked up) [Ibtx, reference compound]
  Decrease in diameter: −2.25±0.44%
